Molecular target: T1, CDK2 (Homo sapiens, UniProt P24941)
T1 construct: endogenous in cells; host or cells: MKN1 cells
Assay: CDK2 degradation in MKN1 cells (AlphaLISA)
Type: cell-based
Parameters: key to CDK2 degradation 14 h: Mean external-Abs DC50 (nM): A (<100 nM); B (≥100-500 nM); C (>500-1000 nM); D (>1000 nM); E (not achieved)
Conditions: 14 h incubation; for DC50: read-out: CDK2 degradation 14 h: Mean external-Abs DC50
Outline: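 DC50 from four-parameter logistic fit of AlphaLISA CDK2 signal, corrected for no-cell wells. Lysates came from MKN1 cells, 2e4 per well, exposed 14 h at 37° C to compound at 0.001 nM-10 μM (1:5 series, 11 doses) in 0.1% DMSO.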

SMILES	CDK2 degradation 14 h: Average Dmax %	DC50	CDK2 degradation 14 h: Mean external-Abs DC50 (nM)
Cc1cc(S(=O)(=O)NCCCN2CCN(CC3CCN(c4ccc5c(c4)n(C)c(=O)n5C4CCC(=O)NC4=O)CC3)CC2)ccc1Nc1ncc2cc(Cl)c(=O)n(C3CCCC3)c2n1 (stereo not drawn) [I-431]	A (A (>75% o))	< 100 nM	–
Cc1cc(S(=O)(=O)NCCO[C@H]2CC[C@H](CN3CCN(c4ccc5c(c4)n(C)c(=O)n5C4CCC(=O)NC4=O)CC3)CC2)ccc1Nc1ncc2cc(Cl)c(=O)n(C3CCCC3)c2n1 (stereo partly drawn) [I-432]	A (A (>75% o))	< 100 nM	–
Cc1cc(S(=O)(=O)NCCCN2CCC(OC3CCN(c4ccc5c(c4)n(C)c(=O)n5C4CCC(=O)NC4=O)CC3)CC2)ccc1Nc1ncc2cc(Cl)c(=O)n(C3CCCC3)c2n1 (stereo not drawn) [I-433]	A (A (>75% o))	< 100 nM	–
Cc1cc(S(=O)(=O)NCCOC2CCN(CC3CCN(c4ccc5c(c4)n(C)c(=O)n5C4CCC(=O)NC4=O)CC3)CC2)ccc1Nc1ncc2cc(Cl)c(=O)n(C3CCCC3)c2n1 (stereo not drawn) [I-434]	A (A (>75% o))	< 100 nM	–
Cc1cc(S(=O)(=O)N(C)CCO[C@H]2CC[C@H](CN3CCC(c4ccc5c(c4)n(C)c(=O)n5C4CCC(=O)NC4=O)CC3)CC2)ccc1Nc1ncc2cc(Cl)c(=O)n(C3CCCC3)c2n1 (stereo partly drawn) [I-435]	A (A (>75% o))	< 100 nM	–
Cc1cc(S(=O)(=O)N2CCC(CN(C)C3CCN(c4cccc5c4n(C)c(=O)n5C4CCC(=O)NC4=O)CC3)CC2)ccc1Nc1ncc2cc(Cl)c(=O)n(C3CCCC34CC4)c2n1 (stereo not drawn) [I-436]	A (A (>75% o))	< 100 nM	–
Cc1cc(S(=O)(=O)N2CCC(CN(C)C3CCN(c4cccc5c4n(C)c(=O)n5C4CCC(=O)NC4=O)CC3)CC2)ccc1Nc1ncc2cc(Cl)c(=O)n(C(C)C)c2n1 (stereo not drawn) [I-437]	A (A (>75% o))	< 100 nM	–
Cc1cc(S(=O)(=O)N2CCC(CN(C)C3CCN(c4cccc5c4n(C)c(=O)n5C4CCC(=O)NC4=O)CC3)CC2)ccc1Nc1ncc2cc(C(F)F)c(=O)n(C3CCCC3)c2n1 (stereo not drawn) [I-438]	A (A (>75% o))	< 100 nM	–
Cc1cc(S(=O)(=O)NCCO[C@H]2CC[C@H](CN3CCC(c4ccc5c(c4)n(C)c(=O)n5C4CCC(=O)NC4=O)CC3)CC2)ccc1Nc1ncc2cc(Cl)c(=O)n(C3CCCC34CC4)c2n1 (stereo partly drawn) [I-439]	A (A (>75% o))	< 100 nM	–
Cc1cc(S(=O)(=O)NCCO[C@H]2CC[C@H](CN3CCC(c4ccc5c(c4)n(C)c(=O)n5C4CCC(=O)NC4=O)CC3)CC2)ccc1Nc1ncc2cc(Cl)c(=O)n(C(C)C)c2n1 (stereo partly drawn) [I-440]	A (A (>75% o))	< 100 nM	–
Cc1cc(S(=O)(=O)NCCO[C@H]2CC[C@H](CN3CCC(c4ccc5c(c4)n(C)c(=O)n5C4CCC(=O)NC4=O)CC3)CC2)ccc1Nc1ncc2cc(C(F)F)c(=O)n(C3CCCC3)c2n1 (stereo partly drawn) [I-441]	A (A (>75% o))	< 100 nM	–
Cc1cc(S(=O)(=O)N2CCC(CN(C)C3CCN(c4cccc5c4n(C)c(=O)n5C4CCC(=O)NC4=O)CC3)CC2)ccc1Nc1ncc2cc(Cl)c(=O)n(C3CCCC3)c2n1 (stereo not drawn) [I-442]	A (A (>75% o))	< 100 nM	–
Cc1cc(S(=O)(=O)NCCOC2CC3(C2)CN(Cc2ccc4c(c2)n(C)c(=O)n4C2CCC(=O)NC2=O)C3)ccc1Nc1ncc2ccc(=O)n(C3CCCC3)c2n1 (stereo not drawn) [I-445]	A (A (>75% o))	< 100 nM	–
Cc1cc(S(=O)(=O)N2CCC(OCC#Cc3cccc4c3n(C)c(=O)n4C3CCC(=O)NC3=O)CC2)ccc1Nc1ncc2ccc(=O)n(C3CCCC3)c2n1 (stereo not drawn) [I-447]	D (D (<25%))	> 1000 nM	–
Cc1cc(S(=O)(=O)N2CCC(CN(C)C3CCN(Cc4cccc5c4n(C)c(=O)n5C4CCC(=O)NC4=O)CC3)CC2)ccc1Nc1ncc2ccc(=O)n(C3CCCC3)c2n1 (stereo not drawn) [I-449]	A (A (>75% o))	< 100 nM	–
Cc1cc(S(=O)(=O)N2CCC(CN(C)C3CCN(c4cccc5c4n(C)c(=O)n5C4CCC(=O)NC4=O)CC3)CC2)ccc1Nc1ncc2ccc(=O)n(C3CCCC3)c2n1 (stereo not drawn) [I-450]	A (A (>75% o))	< 100 nM	–
Cc1cc(S(=O)(=O)N2CCC(CN3CCN(c4cccc5c4n(C)c(=O)n5C4CCC(=O)NC4=O)CC3)CC2)ccc1Nc1ncc2ccc(=O)n(C3CCCC3)c2n1 (stereo not drawn) [I-451]	C (C (>25% -50%))	–	E
Cc1cc(S(=O)(=O)N2CCC(CN3CCN(Cc4cccc5c4n(C)c(=O)n5C4CCC(=O)NC4=O)CC3)CC2)ccc1Nc1ncc2ccc(=O)n(C3CCCC3)c2n1 (stereo not drawn) [I-452]	B (B (>50% -75%))	< 100 nM	–
Cc1cc(S(=O)(=O)N2CCC(OCCCc3ccc4c(c3)n(C)c(=O)n4C3CCC(=O)NC3=O)CC2)ccc1Nc1ncc2ccc(=O)n(C3CCCC3)c2n1 (stereo not drawn) [I-453]	D (D (<25%))	> 1000 nM	–
Cc1cc(S(=O)(=O)N2CCC(OCCCc3cccc4c3n(C)c(=O)n4C3CCC(=O)NC3=O)CC2)ccc1Nc1ncc2ccc(=O)n(C3CCCC3)c2n1 (stereo not drawn) [I-454]	C (C (>25% -50%))	> 1000 nM	–

SMILES	CDK2 degradation 14 h: Average Dmax %	DC50	CDK2 degradation 14 h: Mean external-Abs DC50 (nM)
Cc1cc(S(=O)(=O)N2CCC(OCC#Cc3cccc4c3n(C)c(=O)n4C3CCC(=O)NC3=O)CC2)ccc1Nc1ncc2cc(Cl)c(=O)n(C3CCCC3)c2n1 (stereo not drawn) [I-455]	D (D (<25%))	> 1000 nM	–
Cc1cc(S(=O)(=O)N2CCC3(CCN(Cc4cccc5c4n(C)c(=O)n5C4CCC(=O)NC4=O)CC3)CC2)ccc1Nc1ncc2ccc(=O)n(C3CCCC3)c2n1 (stereo not drawn) [I-458]	B (B (>50% -75%))	100 to 500 nM	–
Cc1cc(S(=O)(=O)N2CCN(CCCCOCCCc3ccc4c(c3)n(C)c(=O)n4C3CCC(=O)NC3=O)CC2)ccc1Nc1ncc2ccc(=O)n(C3CCCC3)c2n1 (stereo not drawn) [I-459]	B (B (>50% -75%))	100 to 500 nM	–
Cc1cc(S(=O)(=O)NCCOCCOCCOCCOCCCc2ccc3c(c2)n(C)c(=O)n3C2CCC(=O)NC2=O)ccc1Nc1ncc2c(C)c(Br)c(=O)n(C3CCCC3)c2n1 (stereo not drawn) [I-460]	B (B (>50% -75%))	< 100 nM	–
Cc1cc(S(=O)(=O)NCCOCCOCCOCCCc2ccc3c(c2)n(C)c(=O)n3C2CCC(=O)NC2=O)ccc1Nc1ncc2cc(Cl)c(=O)n(C3CCCC3)c2n1 (stereo not drawn) [I-461]	A (A (>75% o))	< 100 nM	–
Cc1cc(S(=O)(=O)N2CC(OCCN3CCC(c4ccc5c(c4)n(C)c(=O)n5C4CCC(=O)NC4=O)CC3)C2)ccc1Nc1ncc2ccc(=O)n(C3CCCC3)c2n1 (stereo not drawn) [I-462]	A (A (>75% o))	< 100 nM	–
Cc1cc(S(=O)(=O)N2CC3(CC(OCCN4CCC(c5ccc6c(c5)n(C)c(=O)n6C5CCC(=O)NC5=O)CC4)C3)C2)ccc1Nc1ncc2ccc(=O)n(C3CCCC3)c2n1 (stereo not drawn) [I-463]	C (C (>25% -50%))	–	E
Cc1cc(S(=O)(=O)N2CCC(N3CCN(CCCc4ccc5c(c4)n(C)c(=O)n5C4CCC(=O)NC4=O)CC3)CC2)ccc1Nc1ncc2ccc(=O)n(C3CCCC3)c2n1 (stereo not drawn) [I-464]	B (B (>50% -75%))	< 100 nM	–
Cc1cc(S(=O)(=O)NCCOCCOCCCc2ccc3c(c2)n(C)c(=O)n3C2CCC(=O)NC2=O)ccc1Nc1ncc2c(C)cc(=O)n(C3CCCC3)c2n1 (stereo not drawn) [I-466]	D (D (<25%))	> 1000 nM	–
Cc1cc(S(=O)(=O)NCCOCCOCCOCCOCCCc2ccc3c(c2)n(C)c(=O)n3C2CCC(=O)NC2=O)ccc1Nc1ncc2c(C)cc(=O)n(C3CCCC3)c2n1 (stereo not drawn) [I-467]	C (C (>25% -50%))	–	E
Cc1cc(S(=O)(=O)NCCOC2CCC(CN3CCC(c4ccc5c(c4)n(C)c(=O)n5C4CCC(=O)NC4=O)CC3)CC2)ccc1Nc1ncc2ccc(=O)n(C3CCCC3)c2n1 (stereo not drawn) [I-468]	A (A (>75% o))	< 100 nM	–
Cc1cc(S(=O)(=O)NCCOC2CCC(N(C)CC3CCN(c4ccc5c(c4)n(C)c(=O)n5C4CCC(=O)NC4=O)CC3)CC2)ccc1Nc1ncc2ccc(=O)n(C3CCCC3)c2n1 (stereo not drawn) [I-469]	A (A (>75% o))	< 100 nM	–
Cc1cc(S(=O)(=O)NCCOC2CCC3(CC2)CCN(CCCc2ccc4c(c2)n(C)c(=O)n4C2CCC(=O)NC2=O)CC3)ccc1Nc1ncc2ccc(=O)n(C3CCCC3)c2n1 (stereo not drawn) [I-470]	A (A (>75% o))	< 100 nM	–
Cc1cc(S(=O)(=O)NCCOC2CCC3(CC2)CCN(CC#Cc2ccc4c(c2)n(C)c(=O)n4C2CCC(=O)NC2=O)CC3)ccc1Nc1ncc2ccc(=O)n(C3CCCC3)c2n1 (stereo not drawn) [I-471]	A (A (>75% o))	< 100 nM	–
Cc1cc(S(=O)(=O)NCCOC2CC3(C2)CN(CCCc2ccc4c(c2)n(C)c(=O)n4C2CCC(=O)NC2=O)C3)ccc1Nc1ncc2ccc(=O)n(C3CCCC3)c2n1 (stereo not drawn) [I-472]	A (A (>75% o))	< 100 nM	–
Cc1cc(S(=O)(=O)NCCOC2CC3(C2)CN(CC#Cc2ccc4c(c2)n(C)c(=O)n4C2CCC(=O)NC2=O)C3)ccc1Nc1ncc2ccc(=O)n(C3CCCC3)c2n1 (stereo not drawn) [I-473]	A (A (>75% o))	< 100 nM	–
Cc1cc(S(=O)(=O)NCCOCCOCCOCCCc2ccc3c(c2)n(C)c(=O)n3C2CCC(=O)NC2=O)ccc1Nc1ncc2ccc(=O)n(C3CCCC3)c2n1 (stereo not drawn) [I-474]	A (A (>75% o))	< 100 nM	–
Cc1cc(S(=O)(=O)NCCOCCOCCCc2ccc3c(c2)n(C)c(=O)n3C2CCC(=O)NC2=O)ccc1Nc1ncc2ccc(=O)n(C3CCCC3)c2n1 (stereo not drawn) [I-475]	A (A (>75% o))	< 100 nM	–
Cc1cc(S(=O)(=O)NCCOCCOCCOCCOCCNc2cccc3c2C(=O)N(C2CCC(=O)NC2=O)C3=O)ccc1Nc1ncc2cc(C(F)F)c(=O)n(C3CCCC3(C)O)c2n1 (stereo not drawn) [I-483]	A (A (>75% o))	< 100 nM	–

— US20240173419A1, “CDK2 DEGRADERS AND USES THEREOF” (Kymera Therapeutics, Inc., priority 2022, published 2024)
